Source: patent publication US4895589A, “Heterocyclic compounds” (Imperial Chemical Industries PLC, priority 1985, dated 1990)

What was measured:
Dacrylis glomerata = conditions: DA, 4000 ppm, 2-3 weeks
Protocol: (§2) The compounds were tested for plant growth regulator activity against up to tweleve plant species for various growth effects relevant to plant growth regulation.
(§3) Each chemical was applied at 4000 ppm (4 kg/ha in a 1000 l/ha field volume) using a tracksprayer and a SS8004E (Teejet) nozzle.
(§4) After spray, the plants were grown in a glasshouse with 25° C. day/22° C. night temperatures and supplementary lighting was supplied when necessary (from mercury vapour lamps), to provide a 16 hour photoperiod. The exception to this were the temperate cereals, wheat and barley, which were grown in 16° C. day 13° C. night temperatures
(§5) After 2-3 weeks in the glasshouse, depending on the time of year, the plants were visually assessed for morphological characteristics. Formulations blanks were used as controls to assess the Plants.

[1] = tested on: plant species of Whole Plant Screen (1) or (2); assay: Across screen comparison: total retardation relative to paclobutrazol (Whole Plant Screens (1) and (2)); format: in vivo; conditions: compounds of Table I, Table X
Procedure, shortened: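 Compounds, each tested in Whole Plant Screen (1) or (2), are compared by summing retardation scores over all species tested. Each total is expressed as a percentage of the total retardation from paclobutrazol, the standard run in every test.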

Lettuce = conditions: LT, 4000 ppm, 2-3 weeks
Wheat = conditions: WW, 4000 ppm, 2-3 weeks
Spring Barley = assay: Intermediate Retardant Test, spring barley; format: in vivo, Spring Barley (Atem/kym); conditions: Hordeum vulgare, 672 h, ~28 days, Table VIII, read-out: Percentage Reduction in Height of Spring Barley (Compared to formulation blank)
Procedure, shortened: (§1)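 Overall spray at 1000 ppm and 4000 ppm (1 and 4 kg ha^-1, 1000 l/ha), giving foliar plus root exposure; rice in flooded paddy pots, barley and apples in 4" pots. Height measured ~28 days after treatment (ligule for cereals, apex for apples), reported as % reduction versus formulation blank.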

Barley = conditions: BR, 4000 ppm, 2-3 weeks
Protocol: as §2, §3, §4, §5

Apples = assay: Intermediate Retardant Test, apples; format: in vivo, Apples (Red Delicious); conditions: 672 h, ~28 days, Table IX, read-out: Percentage Reduction in Height of Apples (Compared to formulation blank)
Procedure, shortened: as §1

Vines = conditions: VN, 4000 ppm, 2-3 weeks
Protocol: as §2, §3, §4, §5

Soya = conditions: SY, 4000 ppm, 2-3 weeks
Protocol: as §2, §3, §4, §5

Agrostis tenius = conditions: AT, 4000 ppm, 2-3 weeks
Protocol: as §2, §3, §4, §5

Cynosurus cristatus = conditions: CC, 4000 ppm, 2-3 weeks
Protocol: as §2, §3, §4, §5

Tomato = conditions: TO, 4000 ppm, 2-3 weeks
Protocol: as §2, §3, §4, §5

Rice = assay: Intermediate Retardant Test, rice; format: in vivo, Rice (Ishikari); conditions: Oryza sativa, 672 h, ~28 days, Table VII, read-out: Percentage Reduction in Height of Rice (Compared to formulation blank)
Procedure, shortened: as §1

Sugar beet = conditions: SB, 4000 ppm, 2-3 weeks
Protocol: as §2, §3, §4, §5

Maize = conditions: MZ, 4000 ppm, 2-3 weeks
Protocol: as §2, §3, §4, §5

Radish = conditions: RA, 4000 ppm, 2-3 weeks
Protocol: as §2, §3, §4, §5

| Structure (SMILES) | Retardation score (1-3) with greening (G), apical damage (A), tillering/side shooting (T) (Dacrylis glomerata) | Total Retardation expressed as a percentage of the total retardation caused by paclobutrazol [1] | Retardation score (1-3) with greening (G), apical damage (A), tillering/side shooting (T) (Lettuce) | Retardation score (1-3) with greening (G), apical damage (A), tillering/side shooting (T) (Wheat) | height reduction vs blank at 1000 ppm (Spring Barley) | height reduction vs blank at 4000 ppm (Spring Barley) | Retardation score (1-3) with greening (G), apical damage (A), tillering/side shooting (T) (Barley) | percent reduction in plant height vs formulation blank at 1000 ppm (Apples) | percent reduction in plant height vs formulation blank at 4000 ppm (Apples) | Retardation score (1-3) with greening (G), apical damage (A), tillering/side shooting (T) (Vines) | Retardation score (1-3) with greening (G), apical damage (A), tillering/side shooting (T) (Soya) | Retardation score (1-3) with greening (G), apical damage (A), tillering/side shooting (T) (Agrostis tenius) | Retardation score (1-3) with greening (G), apical damage (A), tillering/side shooting (T) (Cynosurus cristatus) | Retardation score (1-3) with greening (G), apical damage (A), tillering/side shooting (T) (Tomato) | Percent reduction in rice plant height vs formulation blank at 1000 ppm (Rice) | Percent reduction in rice plant height vs formulation blank at 4000 ppm (Rice) | Retardation score (1-3) with greening (G), apical damage (A), tillering/side shooting (T) (Sugar beet) | Retardation score (1-3) with greening (G), apical damage (A), tillering/side shooting (T) (Maize) | Retardation score (1-3) with greening (G), apical damage (A), tillering/side shooting (T) (Radish) |
| --- | --- | --- | --- | --- | --- | --- | --- | --- | --- | --- | --- | --- | --- | --- | --- | --- | --- | --- | --- |
| CCC(C)C#CC(O)(Cn1cncn1)C(C)(C)C (centres unmarked) [Compound 6, 2,2-dimethyl-3-hydroxy-3-(3-methyl-pent-1-yne-1-yl)-4-(1,2,4-triazol-1-yl)-butane] | 1 (10-30% retardation) | 52.0 % of paclobutrazol | 1G | 3GT | 0.8% | 23.5% | 2G | 1.2% | 38.6% | 2GT | 2GA | 1 (10-30% retardation) | 1 (10-30% retardation) | 1G | 11.2% | 22.7% | 1G | – | – |
| CCCCCC#CC(O)(Cn1cncn1)C(C)(C)C (centres unmarked) [Compound 3, 2,2-dimethyl-3-hydroxy-3-(hept-1-yne-1-yl)-4-(1,2,4-triazol-1-yl)-butane] | 2G | 65.6 % of paclobutrazol | – | 2GT | 18.5% | 34.7% | 1T | 9.5% | 25.9% | 2GAT | 3GA | 2G | 2G | 2G | 21.2% | 40.8% | 1G | 1G | 3 (61-100% retardation) |
| CC(C)CCC#CC(O)(Cn1cncn1)C(C)(C)C (centres unmarked) [Compound 8, 2,2-dimethyl-3-hydroxy-3-(5-methyl-hex-1-yne-1-yl)-4-(1,2,4-triazol-1-yl)-butane] | 1G | 60.0 % of paclobutrazol | 1G | 3GT | 39.6% | 65.8% | 1T | 7.5% | 26% | 1 (10-30% retardation) | 3G | 1G | 2G | 2G | 26.6% | 47.7% | – | 1G | 3G |
| CCCCC#CC(Cn1cncn1)(OC)C(C)(C)C (centres unmarked) [Compound 2] | – | – | 1 (10-30% retardation) | 2G | 0.2% | 25.6% | – | – | 12.3% | – | 3GT | – | 1G | 1G | 17.4% | 34.6% | 1G | 2GA | – |
